Source: paper PMC4655241, “The Structure of a Novel Thermophilic Esterase from the Planctomycetes Species, Thermogutta terrifontis Reveals an Open Active Site Due to a Minimal ‘Cap’ Domain” (Frontiers in Microbiology, 2015)

Key:
TtEst2 [1] = target: T1, TtEst2 (Thermogutta terrifontis, UniProt A0A0X1KHD1); assay: X-ray crystal structure, soak; format: binding; conditions: carboxyl pocket of active site
T1 construct: mature form, predicted signal peptide removed; pLATE52 N-terminal His6 tag with WELQ protease site (cleavage not mentioned); E. coli BL21 (DE3); monomer; residues 1-283 modelled

TtEst2 [2] = target: T1, TtEst2; assay: pNP release, A410; format: biochemical; conditions: 1 mM substrate, 20 mM HEPES, 100 mM NaCl, pH 7.5, 25 C

T1 sequence (A0A0X1KHD1 entry or part of it): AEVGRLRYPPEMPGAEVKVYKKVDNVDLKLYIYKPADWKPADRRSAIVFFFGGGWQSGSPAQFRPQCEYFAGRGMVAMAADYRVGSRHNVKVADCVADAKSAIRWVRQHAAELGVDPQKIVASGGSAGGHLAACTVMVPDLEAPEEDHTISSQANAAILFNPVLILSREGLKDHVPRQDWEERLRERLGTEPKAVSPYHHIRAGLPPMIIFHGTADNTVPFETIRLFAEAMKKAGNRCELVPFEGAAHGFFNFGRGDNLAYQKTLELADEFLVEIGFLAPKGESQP

CCCC(=O)O [butyrate]
X-ray crystal structure, soak (TtEst2 [1]; pH 4.5, 25 mM soak, oxyanion hole, 1.79 A): 5AOB (butyrate bound)

CCCCC(=O)O [valerate]
X-ray crystal structure, soak (TtEst2 [1]; pH 4.5, soaked as 25 mM pNP-valerate, only valerate part seen, 1.79 A): 5AOC (valerate bound)

CCC(=O)O [propionate]
X-ray crystal structure, soak (TtEst2 [1]; pH 4.5, 25 mM soak, oxyanion hole, 1.71 A): 5AOA (propionate bound)

CC(=O)Oc1ccc([N+](=O)[O-])cc1 [pNP-acetate]
pNP release, A410 (TtEst2 [2]): The enzyme was most active toward pNP-acetate
